The results in this text go back to patent US20120264735A1 (priority 2009, published 2012).

Broadly, the IC50 is the concentration that inhibits the measured activity by half.

Molecules are shown by their SMILES. Some results are limits rather than exact numbers.

T1 sequence (P08581 25-1390): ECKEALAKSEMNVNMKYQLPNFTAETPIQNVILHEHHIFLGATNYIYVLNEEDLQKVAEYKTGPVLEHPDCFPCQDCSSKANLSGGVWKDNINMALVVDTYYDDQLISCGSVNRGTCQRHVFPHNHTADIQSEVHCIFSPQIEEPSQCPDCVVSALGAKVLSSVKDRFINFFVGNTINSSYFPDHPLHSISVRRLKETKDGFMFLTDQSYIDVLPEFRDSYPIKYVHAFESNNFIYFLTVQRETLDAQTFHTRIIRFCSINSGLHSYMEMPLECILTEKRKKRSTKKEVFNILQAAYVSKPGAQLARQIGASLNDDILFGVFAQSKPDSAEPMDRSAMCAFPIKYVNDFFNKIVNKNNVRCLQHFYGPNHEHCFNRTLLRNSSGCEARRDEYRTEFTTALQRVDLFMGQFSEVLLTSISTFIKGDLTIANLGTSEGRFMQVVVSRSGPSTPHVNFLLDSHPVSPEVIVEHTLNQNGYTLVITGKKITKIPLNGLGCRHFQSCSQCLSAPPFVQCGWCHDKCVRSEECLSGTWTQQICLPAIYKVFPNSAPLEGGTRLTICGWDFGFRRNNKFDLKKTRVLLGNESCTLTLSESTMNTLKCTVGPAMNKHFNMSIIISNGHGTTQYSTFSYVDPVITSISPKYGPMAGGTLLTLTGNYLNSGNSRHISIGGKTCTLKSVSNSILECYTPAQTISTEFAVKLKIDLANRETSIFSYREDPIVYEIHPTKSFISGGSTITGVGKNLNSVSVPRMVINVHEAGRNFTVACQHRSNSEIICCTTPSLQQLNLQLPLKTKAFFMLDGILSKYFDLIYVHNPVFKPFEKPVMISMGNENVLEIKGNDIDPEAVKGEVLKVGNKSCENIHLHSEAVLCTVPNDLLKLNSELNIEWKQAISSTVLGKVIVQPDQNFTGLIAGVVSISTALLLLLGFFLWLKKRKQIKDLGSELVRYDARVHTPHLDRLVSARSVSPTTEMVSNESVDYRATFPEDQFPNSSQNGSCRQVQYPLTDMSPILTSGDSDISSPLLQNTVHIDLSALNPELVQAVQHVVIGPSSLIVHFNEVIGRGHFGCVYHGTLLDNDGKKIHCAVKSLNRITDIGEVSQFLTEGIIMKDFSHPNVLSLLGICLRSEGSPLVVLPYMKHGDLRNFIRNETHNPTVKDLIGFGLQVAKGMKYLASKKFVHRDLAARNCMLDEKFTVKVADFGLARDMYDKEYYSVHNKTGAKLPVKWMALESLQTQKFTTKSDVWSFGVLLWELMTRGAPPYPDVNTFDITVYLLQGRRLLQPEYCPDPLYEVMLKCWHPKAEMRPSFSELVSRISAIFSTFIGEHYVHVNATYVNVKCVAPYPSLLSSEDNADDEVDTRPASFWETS

This experiment has as its target T1, c-Met kinase (recombinant c-Met) (Homo sapiens, UniProt P08581).
T1 construct: 0.27 nM recombinant c-Met
The experiment can be described thus: In vitro kinase assay I (homogeneous time-resolved fluorescence tyrosine kinase assay). Type of experiment: biochemical. Summed up:
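Biotinylated peptide (0.5 μM) phosphorylated by 0.2 nM recombinant c-Met with 50 μM MgATP, 60 min at room temperature, pH 7.4, 5% DMSO. EDTA stop; HTRF read with Eu-anti-phosphotyrosine antibody and streptavidin-APC. IC50 from 4-parameter logistic fit.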
As for `Cn1cc(-n2ccc(=O)c(Cc3cccc(-c4ncc(C(=O)NCC5CCOC5)cn4)c3)n2)cn1` (racemic) [Example 475, rac-2-(3-{[1-(1-methyl-1H-pyrazol-4-yl) 4-oxo-1,4-dihydro-pyridazin-3-yl]methyl}phenyl)-N-(tetrahydro-furan-3-ylmethyl)pyrimidine-5-carboxamide], the IC50 is below 100 nM. On to `Cn1cc(-n2ccc(=O)c(Cc3cccc(-c4ncc(Cc5ccccc5)cn4)c3)n2)cn1` [Example 396], for which the IC50 is below 100 nM. Take `CCc1cnc(-c2cccc(Cc3nn(-c4ccc(F)c(F)c4)ccc3=O)c2)nc1` [Example 407, 1-(3,4-difluorophenyl)-3-[3-(5-ethylpyrimidin-2-yl)benzyl]pyridazin-4(1H)-one]: the IC50 is below 100 nM. Consider `CCOc1cnc(-c2cc(F)cc(Cc3nn(-c4cnn(C)c4)ccc3=O)c2)nc1` [Example 120, 3-[3-(5-ethoxypyrimidin-2-yl)-5-fluorobenzyl]-1-(1-methyl-1H-pyrazol-4-yl)pyridazin-4(1H)-one], for which the IC50 was below 100 nM. `O=c1ccn(-c2ccc(Cl)cc2)nc1Cc1ccc(O)cc1` [Example 754, 1-(4-Chlorophenyl)-3-(4-hydroxybenzyl)pyridazin-4(1H)-one]: the IC50 fell in the range of 100 to 1000 nM.

As for `O=C(Nc1cccc(Cc2nn(-c3ccc(F)c(F)c3)ccc2=O)c1)OCCN1CCOCC1` [Example 22, 2-morpholin-4-ylethyl (3-{[1-(3,4-difluorophenyl)-4-oxo-1,4-dihydropyridazin-3-yl]methyl}phenyl)carbamate], the half-inhibitory concentration (IC50) was below 100 nM.

As to `COc1cnc(-c2cccc(C(CO)c3nn(-c4cnn(C)c4)ccc3=O)c2)nc1` (racemic) [Example 254, rac-3-{2-Hydroxy-1-[3-(5-methoxypyrimidin-2-yl)phenyl]ethyl}-1-(1-methyl-1H-pyrazol-4-yl)pyridazin-4(1H)-one], the IC50 lay within 1000 to 3000 nM. The result for `Cn1cc(-n2ccc(=O)c(Cc3cccc(NC(=O)OCC4CCC4)c3)n2)cn1` [Example 538, cyclobutylmethyl (3-{[1-(1-methyl-1H-pyrazol-4-yl)-4-oxo-1,4-dihydropyridazin-3-yl]methyl}phenyl)carbamate] reads below 100 nM; that for `Cn1cc(-n2ccc(=O)c(Cc3cccc(-c4ncc(-c5ccncc5)cn4)c3)n2)cn1` [Example 409, 1-(1-Methyl-1H-pyrazol-4-yl)-3-{3-[5-(pyridin-4-yl)pyrimidin-2-yl]benzyl}pyridazin-4(1H)-one], below 100 nM; that for `Cn1cc(-n2ccc(=O)c(Cc3cccc(NC(=O)OCC(F)(F)F)c3)n2)cn1` [Example 544, 2,2,2-trifluoroethyl (3-{[1-(1-methyl-1H-pyrazol-4-yl)-4-oxo-1,4-dihydropyridazin-3-yl]methyl}phenyl)carbamate], below 100 nM. Regarding `CNC(=O)c1cnc(-c2cccc(Cc3nn(-c4cnn(C)c4)ccc3=O)c2)nc1` [Example 485, N-methyl-2-(3-{[1-(1-methyl-1H-pyrazol-4-yl)-4-oxo-1,4-dihydro-pyridazin-3-yl]methyl}phenyl)pyrimidine-5-carboxamide], the IC50 was below 100 nM. The result for `CN1CCN(CCOC(=O)Nc2cccc(Cc3nn(-c4cnn(C)c4)ccc3=O)c2)CC1` [Example 530, 2-(4-methylpiperazin-1-yl)ethyl (3-{[1-(1-methyl-1H-pyrazol-4-yl)-4-oxo-1,4-dihydropyridazin-3-yl]methyl}phenyl)carbamate] reads below 100 nM; that for `CCCCc1cnc(-c2cccc(Cc3nn(-c4cnn(C)c4)ccc3=O)c2)nc1` [Example 392, 3-[3-(5-butylpyrimidin-2-yl)benzyl]-1-(1-methyl-1H-pyrazol-4-yl)pyridazin-4(1H)-one], below 100 nM. The result for `COCCOC(=O)Nc1cccc(Cc2nn(-c3cnn(C)c3)ccc2=O)c1` [Example 54, 2-methoxyethyl (3-{[1-(1-methyl-1H-pyrazol-4-yl)-4-oxo-1,4-dihydropyridazin-3-yl]methyl}phenyl)carbamate] reads below 100 nM; that for `Cn1cc(-n2ccc(=O)c(Cc3cccc(-c4ncc(C(=O)NCC5COCCO5)cn4)c3)n2)cn1` (racemic) [Example 476, rac-N-(1,4-dioxan-2-ylmethyl)-2-(3-{[1-(1-methyl-1H-pyrazol-4-yl)-4-oxo-1,4-dihydro-pyridazin-3-yl]methyl}phenyl)pyrimidine-5-carboxamide], below 100 nM.

As for `O=c1ccn(-c2cc(F)cc(F)c2)nc1Cc1cccc(-c2ncc(O)cn2)c1` [compound 189, 1-(3,5-difluorophenyl)-3-[3-(5-hydroxypyrimidin-2-yl)benzyl]pyridazin-4(1H)-one], the IC50 is 100 to 1000 nM. In the case of `CC(C)COC(=O)Nc1cccc(Cc2nn(-c3cnn(CCCC(=O)N4CCCCC4)c3)ccc2=O)c1` [Example 699, 2-methylpropyl [3-({4-oxo-1-[1-(4-oxo-4-piperidin-1-ylbutyl)-1H-pyrazol-4-yl]-1,4-dihydropyridazin-3-yl}methyl)phenyl] carbamate], the IC50 is below 100 nM. For `CCOC(=O)Nc1cccc(Cc2nn(-c3ccn(C)n3)ccc2=O)c1` [Example 25, ethyl (3-{[1-(1-methyl-1H-pyrazol-3-yl)-4-oxo-1,4-dihydropyridazin-3-yl]methyl}phenyl)carbamate], the IC50 was 100 to 1000 nM.

`CC(C)COC(=O)Nc1cccc(Cc2nn(-c3cn[nH]c3)ccc2=O)c1` [Example 197, isobutyl (3-{[4-oxo-1-(1H-pyrazol-4-yl)-1,4-dihydropyridazin-3-yl]methyl}phenyl)carbamate]: the IC50 was below 100 nM. Regarding `Cn1cc(-n2ccc(=O)c(Cc3cccc(NC(=O)OCC4(F)CCNCC4)c3)n2)cn1` [Example 620, (4-fluoropiperidin-4-yl)methyl (3-{[1-(1-methyl-1H-pyrazol-4-yl)-4-oxo-1,4-dihydropyridazin-3-yl]methyl}phenyl)carbamate], the IC50 is below 100 nM. The result for `CCCn1cnc(-c2cccc(Cc3nn(-c4cnn(CCO)c4)ccc3=O)c2)n1` [compound 192, 1-[1-(2-hydroxyethyl)-1H-pyrazol-4-yl]-3-[3-(1-propyl-1H-1,2,4-triazol-3-yl)benzyl]pyridazin-4(1H)-one] reads below 100 nM. The result for `Cn1cc(-n2ccc(=O)c(Cc3cccc(NC(=O)Cc4ccccc4)c3)n2)cn1` [Example 632, N-(3-{[1-(1-methyl-1H-pyrazol-4-yl)-4-oxo-1,4-dihydropyridazin-3-yl]methyl}phenyl)-2-phenylacetamide] reads 1000 to 3000 nM. The result for `Cn1cc(-n2ccc(=O)c(Cc3cccc(-c4ncc(NC(=O)C5CCCO5)cn4)c3)n2)cn1` (racemic) [Example 462, rac-N-[2-(3-{[1-(1-methyl-1H-pyrazol-4-yl)-4-oxo-1,4-dihydro-pyridazin-3-yl}methyl}phenyl)pyrimidin-5-yl]tetra-hydrofuran-2-carboxamide] reads below 100 nM. For `N#Cc1cccc(-n2ccc(=O)c(Cc3cccc(NC(=O)OCCOCC(F)(F)F)c3)n2)c1` [Example 586, 2-(2,2,2-trifluoroethoxy)ethyl (3-{[1-(3-cyanophenyl)-4-oxo-1,4-dihydropyridazin-3-yl]methyl}phenyl)carbamate], the IC50 was below 100 nM. As to `CCn1cc(-n2ccc(=O)c(C(C)c3cccc(-c4ncc(OCCn5cccn5)cn4)c3)n2)cn1` (single isomer, unassigned) [Example 303, 1-(1-ethyl-1H-pyrazol-4-yl)-3-[(1R or S)-1-(3-{5-[2-(1H-pyrazol-1-yl)ethoxy]pyrimidin-2-yl}phenyl)ethyl]pyridazin-4(1H)-one], the IC50 is below 100 nM. The result for `Cn1cc(-n2ccc(=O)c(Cc3cccc(-c4ncc(-c5ccc(C#N)nc5)cn4)c3)n2)cn1` [Example 413, 5-[2-(3-{[1-(1-methyl-1H-pyrazol-4-yl)-4-oxo-1,4-dihydropyrida-zin-3-yl]methyl}phenyl)pyrimidin-5-yl]pyridine-2-carbonitrile] reads below 100 nM; that for `Cn1cc(-n2ccc(=O)c(Cc3cccc(NC(=O)CCc4ccccc4)c3)n2)cn1` [Example 633, N-(3-{[1-(1-methyl-1H-pyrazol-4-yl)-4-oxo-1,4-dihydropyridazin-3-yl]methyl}phenyl)-3-phenylpropanamide], below 100 nM; that for `O=C(Nc1cccc(Cc2nn(-c3cc(F)c(F)c(F)c3)ccc2=O)c1)OCC1COCCO1` (racemic) [Example 513, rac-1,4-dioxan-2-ylmethyl (3-{[4-oxo-1-(3,4,5-trifluorophenyl)-1,4-dihydropyridazin-3-yl]methyl}phenyl)carbamate], below 100 nM. The result for `O=C(Nc1cccc(Cc2nn(-c3ccc(F)c(F)c3)ccc2=O)c1)OCC1COCCO1` (racemic) [Example 603, rac-1,4-dioxan-2-ylmethyl (3-{[1-(3,4-difluorophenyl)-4-oxo-1,4-dihydropyridazin-3-yl]methyl}phenyl)carbamate] reads below 100 nM; that for `Cn1cc(-n2ccc(=O)c(Cc3cccc(-c4ncc(OCc5ccsn5)cn4)c3)n2)cn1` [Example 284, 3-{3-[5-(isothiazol-3-ylmethoxy)pyrimidin-2-yl]benzyl}-1-(1-methyl-1H-pyrazol-4-yl)pyridazin-4(1H)-one], below 100 nM; that for `COCCOc1cnc(-c2cccc(Cc3nn(-c4cc(F)c(F)c(F)c4)ccc3=O)c2)nc1` [Example 318, 3-{3-[5-(2-methoxyethoxy)pyrimidin-2-yl]benzyl}-1-(3,4,5-trifluorophenyl)pyridazin-4(1H)-one], below 100 nM. In the case of `CN1CCC(COc2cnc(-c3cccc(Cc4nn(-c5cccc(C#N)c5)ccc4=O)c3)nc2)CC1` [Example 171, 3-[3-(3-{5-[(1-methylpiperidin-4-yl)methoxy]pyrimidin-2-yl}benzyl)-4-oxopyridazin-1(4H)-yl]benzonitrile], the IC50 is below 100 nM. The result for `CC(c1cccc(-c2ncc(OCC(C)(C)O)cn2)c1)c1nn(-c2cnn(C)c2)ccc1=O` (single isomer, unassigned) [Example 381, 3-((1R or S)-1-{3-[5-(2-hydroxy-2-methylpropoxy)pyrimidin-2-yl]phenyl}ethyl)-1-(1-methyl-1H-pyrazol-4-yl)pyridazin-4(1H)-one] reads below 100 nM.
